We go through 3 compounds from PMC2954314 (European Journal of Pharmaceutical Sciences, 2010).

One data set addresses μ opioid receptor (Rattus norvegicus, UniProt P33535). The data set is described as follows: Opioid receptor competition binding, [3H]DAMGO, rat brain membranes.
Data set [1] has as its target δ opioid receptor (Rattus norvegicus, UniProt P33533). The format is binding.
Data set [2] addresses κ opioid receptor (Cavia porcellus, UniProt P41144). The data set is described as follows: Opioid receptor competition binding, [3H]U69,593, guinea pig brain membranes.
The target in data set [3] is δ opioid receptor. The following applies: read-out: Ki δ; ref Spetea et al., 2005; cited from earlier work.
In data set [4] the target is κ opioid receptor. The following applies: read-out: Ki κ; ref Spetea et al., 2005; cited from earlier work.
Data set [5] concerns mice. The data set is described as follows: Rotarod test of motor coordination after s.c. administration. Format: in vivo, mouse. As to conditions: 10 mg/kg (dose range 1.25–10 mg/kg), 30 min.
The subject of data set [6] is mice. The data set is described as follows: Tail-flick test after s.c. administration. Format: in vivo. The following applies: Mus musculus, sc, 0.5 h, read-out: ED50 Tail-flick test. Background: Thermal pain tests record how soon the animal reacts.
Data set [7] relates to mice. The data set is described as follows: Hot-plate test after s.c. administration. Format: in vivo. As to conditions: Mus musculus, sc, 0.5 h, read-out: ED50 Hot-plate test.

“Also recorded” adds a separate entry of the source. Where a name gives a salt, the structure may show the parent alone.

`COc1ccc2c3c1O[C@@]1(Cc4ccccc4)C(=O)C=C[C@@]4(OC)[C@@H](C2)N(C)CC[C@]314` [Compound 3, 5β-Benzyl-14-methoxycodeinone hydrochloride]: the Ki (in general, the equilibrium dissociation constant of an inhibitor or competing ligand from its target) was 34.1 ± 6 nM on μ opioid receptor, more than 10 µM at δ opioid receptor [1] and 1890 ± 453 nM on κ opioid receptor [2].
Turning to `COc1ccc2c3c1O[C@H]1C(=O)CC[C@@]4(O)[C@@H](C2)N(C)CC[C@]314` [oxycodone], the Ki at δ opioid receptor [3] is […]; on κ opioid receptor [4], […].
As for `CN1CC[C@]23c4c5ccc(O)c4O[C@H]2[C@@H](O)C=C[C@H]3[C@H]1C5` [Morphine, Morphine hydrochloride], the “Effect on motor coordination (rotarod latencies)” value in the data set on mice [5] is listed as “significant effect; also recorded: dose-dependent suppressive effects on motor coordination with significance”. Further, the values for the ED50 in the data set on mice [6] and with mice [7] were 2.29 mg/kg and 2.63 mg/kg, respectively.
